Read-outs that look alike come from different tables or passages of the source.
Assays:
Type in all cases: cell-based
hKv1.3 = hKv1.3 (Homo sapiens, UniProt P22001); assay: cell-based; details: Kv1.3 (IWQ) IC50 (nM, Avg)
[1] = test system: IFN-g secretion from T cells in human whole blood
[2] = test system: IL-2 secretion from T cells in human whole blood; details: read-out: WB (IL-2) IC50 (nM, Avg)
[3] = read-out: WB (IFNg) IC50 (nM, Avg)

hKv1.3, sequence (P22001 whole entry): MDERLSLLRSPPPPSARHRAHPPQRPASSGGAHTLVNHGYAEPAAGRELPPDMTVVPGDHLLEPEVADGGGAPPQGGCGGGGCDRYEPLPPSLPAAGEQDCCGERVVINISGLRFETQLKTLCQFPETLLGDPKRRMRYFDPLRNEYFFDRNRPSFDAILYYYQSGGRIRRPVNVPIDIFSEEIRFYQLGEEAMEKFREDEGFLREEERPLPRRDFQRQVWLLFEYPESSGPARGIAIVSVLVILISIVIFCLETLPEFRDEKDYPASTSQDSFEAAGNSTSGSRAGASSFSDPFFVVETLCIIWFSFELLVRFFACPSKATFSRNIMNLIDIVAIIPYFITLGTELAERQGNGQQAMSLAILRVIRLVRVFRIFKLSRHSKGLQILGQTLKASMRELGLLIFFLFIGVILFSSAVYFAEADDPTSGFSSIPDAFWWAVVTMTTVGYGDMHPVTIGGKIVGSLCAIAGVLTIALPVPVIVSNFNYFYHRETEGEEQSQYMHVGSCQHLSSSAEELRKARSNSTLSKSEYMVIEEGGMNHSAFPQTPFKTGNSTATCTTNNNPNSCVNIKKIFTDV

Row | Compound | IC50 (hKv1.3) | IC50 [1, 3] | IC50 [2] | IC50 ([1]; read-out: WB (IFNg) IC5- (nM, Avg))
1 | CCCC[C@@H]1NC(=O)[C@H](CO)NC(=O)[C@H](Cc2c[nH]cn2)NC(=O)[C@H](CCCCN)NC(=O)[C@@H]2CSSC[C@@H]3NC(=O)[C@H]([C@@H](C)O)NC(=O)[C@H](CCCCN)NC(=O)[C@H](CCCNC(=N)N)NC(=O)[C@H](CSSC[C@H](NC(=O)[C@H](CCCNC(=N)N)NC(=O)[C@H](CO)NC(=O)[C@H](CCCCN)NC(=O)[C@@H]4CCCN4C(=O)[C@H]([C@@H](C)CC)NC(=O)[C@H]([C@@H](C)O)NC(=O)[C@H](CC(=O)O)NC(=O)[C@H](CCC(=O)O)NC(=O)[C@@H](NC(=O)[C@H](CO)NC(=O)[C@@H](N)CCCNC(=N)N)CSSC[C@@H](C(N)=O)NC(=O)[C@H]([C@@H](C)O)NC(=O)CNC3=O)C(=O)N[C@@H]([C@@H](C)O)C(=O)N[C@@H](C)C(=O)N[C@@H](Cc3ccccc3)C(=O)N[C@@H](CCCCN)C(=O)N2)NC(=O)[C@H](Cc2ccccc2)NC(=O)[C@H](CO)NC(=O)[C@H](CC(C)C)NC(=O)[C@H](CCCNC(=N)N)NC(=O)[C@H](Cc2ccc(O)cc2)NC(=O)[C@H](CCCCN)NC1=O [[Glu4, Lys16,Nle21]ShK-amide] | 0.149 nM | 0.965 nM | 0.57 nM | 
2 | CC[C@H](C)[C@@H]1NC(=O)[C@@H](NC(=O)[C@H](CO)NC(=O)[C@@H](N)CCCNC(=N)N)CSSC[C@@H](C(=O)O)NC(=O)[C@H]([C@@H](C)O)NC(=O)CNC(=O)[C@@H]2CSSC[C@@H]3NC(=O)[C@H](CCC(N)=O)NC(=O)[C@H](Cc4ccccc4)NC(=O)[C@H](C)NC(=O)[C@H]([C@@H](C)O)NC(=O)[C@H](CSSC[C@H](NC(=O)[C@H](Cc4ccccc4)NC(=O)[C@H](CO)NC(=O)[C@H](CC(C)C)NC(=O)[C@H](CCCNC(=N)N)NC(=O)[C@H](Cc4ccc(O)cc4)NC(=O)[C@H](CCCCN)NC(=O)[C@H](CCSC)NC(=O)[C@H](CO)NC(=O)[C@H](Cc4c[nH]cn4)NC(=O)[C@H](CCCCN)NC3=O)C(=O)N[C@@H](CCCNC(=N)N)C(=O)N[C@@H](C)C(=O)N[C@@H]([C@@H](C)O)C(=O)N2)NC(=O)[C@H](CCCNC(=N)N)NC(=O)[C@H](CO)NC(=O)[C@H](CCCCN)NC(=O)[C@@H]2CCCN2C(=O)[C@H]([C@@H](C)CC)NC(=O)[C@H]([C@@H](C)O)NC(=O)[C@H](CC(=O)O)NC1=O [[Ala30]ShK] | 0.178 nM | 0.394 nM | 0.258 nM | 
3 | CC[C@H](C)[C@@H]1NC(=O)[C@@H](NC(=O)[C@H](CCCCN)NC(=O)[C@@H](N)CCCNC(=N)N)CSSC[C@@H](C(=O)O)NC(=O)[C@H]([C@@H](C)O)NC(=O)CNC(=O)[C@@H]2CSSC[C@@H]3NC(=O)[C@H](CCC(N)=O)NC(=O)[C@H](Cc4ccccc4)NC(=O)[C@H](C)NC(=O)[C@H]([C@@H](C)O)NC(=O)[C@H](CSSC[C@H](NC(=O)[C@H](Cc4ccccc4)NC(=O)[C@H](CO)NC(=O)[C@H](CC(C)C)NC(=O)[C@H](CCCNC(=N)N)NC(=O)[C@H](Cc4ccc(O)cc4)NC(=O)[C@H](CCCCN)NC(=O)[C@H](CCSC)NC(=O)[C@H](CO)NC(=O)[C@H](Cc4c[nH]cn4)NC(=O)[C@H](CCCCN)NC3=O)C(=O)N[C@@H](CCCNC(=N)N)C(=O)N[C@@H](CCCCN)C(=O)N[C@@H]([C@@H](C)O)C(=O)N2)NC(=O)[C@H](CCCNC(=N)N)NC(=O)[C@H](CO)NC(=O)[C@H](CCCCN)NC(=O)[C@@H]2CCCN2C(=O)[C@H]([C@@H](C)CC)NC(=O)[C@H]([C@@H](C)O)NC(=O)[C@H](CC(=O)O)NC1=O [[Lys2]ShK] | 0.149 nM | 0.093 nM | 0.099 nM | 
4 | CC[C@H](C)[C@@H]1NC(=O)[C@@H](NC(=O)[C@H](CO)NC(=O)[C@@H](N)CCCNC(=N)N)CSSC[C@@H](C(=O)O)NC(=O)[C@H]([C@@H](C)O)NC(=O)CNC(=O)[C@@H]2CSSC[C@@H]3NC(=O)[C@H](CCC(N)=O)NC(=O)[C@H](Cc4ccccc4)NC(=O)[C@H](C)NC(=O)[C@H]([C@@H](C)O)NC(=O)[C@H](CSSC[C@H](NC(=O)[C@H](Cc4ccccc4)NC(=O)[C@H](CO)NC(=O)[C@H](CC(C)C)NC(=O)[C@H](CCCNC(=N)N)NC(=O)[C@H](Cc4ccc(O)cc4)NC(=O)[C@H](CCCCN)NC(=O)[C@H](CCSC)NC(=O)[C@H](CO)NC(=O)[C@H](Cc4c[nH]cn4)NC(=O)[C@H](CCCCN)NC3=O)C(=O)N[C@@H](CCCNC(=N)N)C(=O)N[C@@H](CCCCN)C(=O)N[C@@H]([C@@H](C)O)C(=O)N2)NC(=O)[C@H](CCCNC(=N)N)NC(=O)[C@H](CO)NC(=O)[C@H](CCCCN)NC(=O)[C@@H]2CCCN2C(=O)[C@H]([C@@H](C)CC)NC(=O)[C@H]([C@@H](C)O)NC(=O)[C@H](CCCNC(=N)N)NC1=O [[Arg5]ShK] | 3.3 nM | 91.7 nM | 47.3 nM | 
5 | CC[C@H](C)[C@@H]1NC(=O)[C@@H](NC(=O)[C@H](CO)NC(=O)[C@@H](N)CCC(=O)O)CSSC[C@@H](C(=O)O)NC(=O)[C@H]([C@@H](C)O)NC(=O)CNC(=O)[C@@H]2CSSC[C@@H]3NC(=O)[C@H](CCC(N)=O)NC(=O)[C@H](Cc4ccccc4)NC(=O)[C@H](C)NC(=O)[C@H]([C@@H](C)O)NC(=O)[C@H](CSSC[C@H](NC(=O)[C@H](Cc4ccccc4)NC(=O)[C@H](CO)NC(=O)[C@H](CC(C)C)NC(=O)[C@H](CCCNC(=N)N)NC(=O)[C@H](Cc4ccc(O)cc4)NC(=O)[C@H](CCCCN)NC(=O)[C@H](CCSC)NC(=O)[C@H](CO)NC(=O)[C@H](Cc4c[nH]cn4)NC(=O)[C@H](CCCCN)NC3=O)C(=O)N[C@@H](CCCNC(=N)N)C(=O)N[C@@H](CCCCN)C(=O)N[C@@H]([C@@H](C)O)C(=O)N2)NC(=O)[C@H](CCCNC(=N)N)NC(=O)[C@H](CO)NC(=O)[C@H](CCCCN)NC(=O)[C@@H]2CCCN2C(=O)[C@H]([C@@H](C)CC)NC(=O)[C@H]([C@@H](C)O)NC(=O)[C@H](CC(=O)O)NC1=O [[Glu1]ShK] | 0.144 nM |  | 0.213 nM | 0.249 nM
6 | CC[C@H](C)[C@@H]1NC(=O)[C@H]([C@@H](C)O)NC(=O)[C@H](CC(=O)O)NC(=O)[C@H](CCC(=O)O)NC(=O)[C@@H](NC(=O)[C@H](CO)NC(=O)[C@@H](N)CCCNC(=N)N)CSSC[C@@H](C(N)=O)NC(=O)[C@H]([C@@H](C)O)NC(=O)CNC(=O)[C@@H]2CSSC[C@@H]3NC(=O)[C@H](CCCCN)NC(=O)[C@H](Cc4ccccc4)NC(=O)[C@H](C)NC(=O)[C@H]([C@@H](C)O)NC(=O)[C@H](CSSC[C@H](NC(=O)[C@H](Cc4ccccc4)NC(=O)[C@H](CO)NC(=O)[C@H](CC(C)C)NC(=O)[C@H](CCCNC(=N)N)NC(=O)[C@H](Cc4ccc(O)cc4)NC(=O)[C@H](CCCCN)NC(=O)[C@H](CCSC)NC(=O)[C@H](CO)NC(=O)[C@H](Cc4c[nH]cn4)NC(=O)[C@H](CCCCN)NC3=O)C(=O)N[C@@H](CCCNC(=N)N)C(=O)N[C@@H](CCCCN)C(=O)N[C@@H]([C@@H](C)O)C(=O)N2)NC(=O)[C@H](CCCNC(=N)N)NC(=O)[C@H](CO)NC(=O)[C@H](CCCCN)NC(=O)[C@@H]2CCCN2C1=O [[Glu4,Lys16]ShK-amide] | 0.127 nM | 0.068 nM | 0.071 nM | 
7 | CC[C@H](C)[C@@H]1NC(=O)[C@@H](NC(=O)[C@H](CO)NC(=O)[C@@H](N)CCCNC(=N)N)CSSC[C@@H](C(=O)O)NC(=O)[C@H]([C@@H](C)O)NC(=O)CNC(=O)[C@@H]2CSSC[C@@H]3NC(=O)[C@H](CCCCN)NC(=O)[C@H](Cc4ccccc4)NC(=O)[C@H](C)NC(=O)[C@H]([C@@H](C)O)NC(=O)[C@H](CSSC[C@H](NC(=O)[C@H](Cc4ccccc4)NC(=O)[C@H](CO)NC(=O)[C@H](CC(C)C)NC(=O)[C@H](CCCNC(=N)N)NC(=O)[C@H](Cc4ccc(O)cc4)NC(=O)[C@H](CCCCN)NC(=O)[C@H](CCSC)NC(=O)[C@H](CO)NC(=O)[C@H](Cc4c[nH]cn4)NC(=O)[C@H](CCCCN)NC3=O)C(=O)N[C@@H](CCCCN)C(=O)N[C@@H](CCCCN)C(=O)N[C@@H]([C@@H](C)O)C(=O)N2)NC(=O)[C@H](CCCNC(=N)N)NC(=O)[C@H](CO)NC(=O)[C@H](CCCCN)NC(=O)[C@@H]2CCCN2C(=O)[C@H]([C@@H](C)CC)NC(=O)[C@H]([C@@H](C)O)NC(=O)[C@H](CC(=O)O)NC1=O [[Lys16, Lys29]ShK] | 0.071 nM | 0.143 nM | 0.112 nM | 
8 | CCCC[C@@H]1NC(=O)[C@H](CO)NC(=O)[C@H](Cc2c[nH]cn2)NC(=O)[C@H](CCC(=O)O)NC(=O)[C@@H]2CSSC[C@@H]3NC(=O)[C@H]([C@@H](C)O)NC(=O)[C@H](CCCCN)NC(=O)[C@H](CCCNC(=N)N)NC(=O)[C@H](CSSC[C@H](NC(=O)[C@H](CCCNC(=N)N)NC(=O)[C@H](CO)NC(=O)[C@H](CCCCN)NC(=O)[C@@H]4CCCN4C(=O)[C@H]([C@@H](C)CC)NC(=O)[C@H]([C@@H](C)O)NC(=O)[C@H](CC(=O)O)NC(=O)[C@H](CCC(=O)O)NC(=O)[C@@H](NC(=O)[C@H](CO)NC(=O)[C@@H](N)CCCNC(=N)N)CSSC[C@@H](C(N)=O)NC(=O)[C@H]([C@@H](C)O)NC(=O)CNC3=O)C(=O)N[C@@H]([C@@H](C)O)C(=O)N[C@@H](C)C(=O)N[C@@H](C)C(=O)N[C@@H](CCCCN)C(=O)N2)NC(=O)[C@H](Cc2ccccc2)NC(=O)[C@H](CO)NC(=O)[C@H](CC(C)C)NC(=O)[C@H](CCCNC(=N)N)NC(=O)[C@H](Cc2ccc(O)cc2)NC(=O)[C@H](CCCCN)NC1=O [[Glu4,18,A1a15,Lys16,Nle21]ShK-amide] | 0.346 nM | 1.6 nM | 1.22 nM | 
9 | CC[C@H](C)[C@@H]1NC(=O)[C@@H](NC(=O)[C@H](CO)NC(=O)[C@@H](N)CCCNC(=N)N)CSSC[C@@H](C(=O)O)NC(=O)[C@H]([C@@H](C)O)NC(=O)CNC(=O)[C@@H]2CSSC[C@@H]3NC(=O)[C@H](CCC(N)=O)NC(=O)[C@H](Cc4ccccc4)NC(=O)[C@H](C)NC(=O)[C@H]([C@@H](C)O)NC(=O)[C@H](CSSC[C@H](NC(=O)[C@H](Cc4ccccc4)NC(=O)[C@H](CO)NC(=O)[C@H](CC(C)C)NC(=O)[C@H](CCCNC(=N)N)NC(=O)[C@H](Cc4ccc(O)cc4)NC(=O)[C@H](CCCCN)NC(=O)[C@H](CCSC)NC(=O)[C@H](CO)NC(=O)[C@H](Cc4c[nH]cn4)NC(=O)[C@H](CCCCN)NC3=O)C(=O)N[C@@H](CCCNC(=N)N)C(=O)N[C@@H](CCCCN)C(=O)N[C@@H]([C@@H](C)O)C(=O)N2)NC(=O)[C@H](CCCNC(=N)N)NC(=O)[C@H](CO)NC(=O)[C@H](CCCCN)NC(=O)[C@@H]2CCCN2C(=O)[C@H](C)NC(=O)[C@H]([C@@H](C)O)NC(=O)[C@H](CC(=O)O)NC1=O [[Ala7]ShK] | 0.188 nM | 2.22 nM | 0.886 nM | 
